Data reported in US20230159445A1, “STAT INHIBITORY COMPOUNDS AND COMPOSITIONS” (JANPIX LIMITED, priority 2020, published 2023).

tested on: MV4-11 cells; assay: MV4-11 Cell Cytotoxicity Assay (CellTiter-Blue, 72 h); type: cell-based, human; details: Homo sapiens, MV4-11; MV-4-11 cells
Description: In some embodiments, the potency of the STAT5 inhibitors are evaluated by an in vitro assay such as MV4-11 Cell Cytotoxicity Assay. […] 10,000 cells were plated per well in 96-well flat-bottom sterile culture plates with low-evaporation lids. After 24 h, inhibitors and a vehicle control (0.5% DMSO) were added and the cells were incubated for 72 h at 37° C. in 5% CO2. Inhibitors were examined in triplicate at a maximal concentration of 50 μM, followed by 1:2 dilutions in subsequent wells (25, 12.5, 6.25, 3.125, 1.5625, 0.78125, 0.390625, 0.195313 and 0.097656 μM). After 72 h, the wells were treated with CellTiter-Blue® (20 μL/well), and the plates were incubated using standard cell culture conditions for 1 hour. Fluorescence was measured at 560/590 nm.

| Compound | IC50 |
| --- | --- |
| O=C(O)c1ccc(N(Cc2ccccn2)C(=O)CN(Cc2ccccc2C(F)(F)F)S(=O)(=O)c2c(F)c(F)c(F)c(F)c2F)c(OC2CC2)c1 [Compound 1127, 3-cyclopropoxy-4-(2-(N-(2-(trifluoromethyl)benzyl)-(2,3,4,5,6-pentafluoro-phenyl)sulfonamido)-N-(pyridin-2-ylmethyl)acetamido) benzoic acid] | 1000 to 3160 nM |
| COc1cc(C(=O)O)ccc1N(Cc1cc(C2CC2)cc(C(C)(C)C)c1)C(=O)CN(Cc1cncc(C(F)(F)F)c1)S(=O)(=O)c1c(F)c(F)c(F)c(F)c1F [Compound 1131, 4-(N-(3-(tert-butyl)-5-cyclopropylbenzyl)-2-(N-((5-(trifluoromethyl)pyridin-3-yl)methyl)-(2,3,4,5,6-pentafluoro-phenyl)sulfonamido)acetamido)-3-methoxybenzoic acid] | 316 to 1000 nM |
| CC(C)(C)c1cc(CN(C(=O)CN(Cc2cccc(C(F)(F)F)c2)S(=O)(=O)c2c(F)c(F)c(F)c(F)c2F)c2ccc(C(=O)O)cc2OC2CC2)cc(C2CC2)c1 [Compound 1135, 4-(N-(3-(tert-butyl)-5-cyclopropylbenzyl)-2-(N-(3-(trifluoromethyl)benzyl)-(2,3,4,5,6-pentafluoro-phenyl)sulfonamido)acetamido)-3-cyclopropoxybenzoic acid] | 316 to 1000 nM |
| O=C(O)c1ccc(N(Cc2cccnn2)C(=O)CN(Cc2ccccc2C(F)(F)F)S(=O)(=O)c2c(F)c(F)c(F)c(F)c2F)c(OC2CC2)c1 [Compound 1138, 3-cyclopropoxy-4-(2-(N-(2-(trifluoromethyl)benzyl)-(2,3,4,5,6-pentafluoro-phenyl)sulfonamido)-N-(pyridazin-3-ylmethyl)acetamido) benzoic acid] | 3160 to 100000 nM |
| CC(C)(C)c1cc(CN(C(=O)CN(Cc2cccc(C#N)c2)S(=O)(=O)c2c(F)c(F)c(F)c(F)c2F)c2ccc(C(=O)O)cc2OC2CC2)cc(C2CC2)c1 [Compound 1139, 4-(N-(3-(tert-butyl)-5-cyclopropylbenzyl)-2-(N-(3-cyanobenzyl)-(2,3,4,5,6-pentafluorophenyl)sulfon-amido)acetamido)-3-cyclopropoxybenzoic acid] | 316 to 1000 nM |
| CC(C)(C)c1cc(CN(C(=O)CN(Cc2ccc(C#N)cc2)S(=O)(=O)c2c(F)c(F)c(F)c(F)c2F)c2ccc(C(=O)O)cc2OC2CC2)cc(C2CC2)c1 [Compound 1140, 4-(N-(3-(tert-butyl)-5-cyclopropylbenzyl)-2-(N-(4-cyanobenzyl)-(2,3,4,5,6-pentafluorophenyl)sulfon-amido)acetamido)-3-cyclopropoxybenzoic acid] | 316 to 1000 nM |
| COc1cc(C(=O)O)ccc1N(Cc1cccc(C(C)(C)C)c1)C(=O)CN(C12CC(C1)C2)S(=O)(=O)c1c(F)c(F)c(F)c(F)c1F [Compound 1144, 4-(2-(N-(bicyclo[1.1.1]pentan-1-yl)-(2,3,4,5,6-pentafluorophenyl)sulfon-amido)-N-(3-(tert-butyl)benzyl)acetamido)-3-methoxybenzoic acid] | 316 to 1000 nM |
| CC(C)(C)c1cc(CN(C(=O)CN(Cc2ccccc2F)S(=O)(=O)c2c(F)c(F)c(F)c(F)c2F)c2ccc(C#N)c(F)c2)cc(C2CC2)c1 [Compound 1151, N-(3-(tert-butyl)-5-cyclopropylbenzyl)-N-(4-cyano-3-fluorophenyl)-2-(N-(2-fluorobenzyl)-(2,3,4,5,6-pentafluoro-phenyl)sulfonamido) acetamide] | 3160 to 100000 nM |
| COc1cc(C(=O)O)ccc1N(Cc1nc2ccccc2n1C)C(=O)CN(Cc1cnccc1C(F)(F)F)S(=O)(=O)c1c(F)c(F)c(F)c(F)c1F [Compound 1158, 3-methoxy-4-(N-((1-methyl-1H-benzo[d]imidazol-2-yl)methyl)-2-(N-((4-(trifluoromethyl)pyridin-3-yl)methyl)-(2,3,4,5,6-pentafluoro-phenyl)sulfonamido)acetamido)benzoic acid] | 3160 to 100000 nM |
| COc1cc(C(=O)O)ccc1N(Cc1cc(C2CC2)cc(C(C)(C)C)c1)C(=O)CN(Cc1ccc(Cl)cc1F)S(=O)(=O)c1c(F)c(F)c(F)c(F)c1F [Compound 1175, 4-(N-(3-(tert-butyl)-5-cyclopropylbenzyl)-2-(N-(4-chloro-2-fluorobenzyl)-(2,3,4,5,6-pentafluorophenyl)sulfon-amido)acetamido)-3-methoxybenzoic acid] | 316 to 1000 nM |
| Cc1cc(C(=O)O)cc(C)c1N(Cc1cc(C2CC2)cc(C(C)(C)C)c1)C(=O)CN(Cc1cnccc1C(F)(F)F)S(=O)(=O)c1c(F)c(F)c(F)c(F)c1F [Compound 1181, 4-(N-(3-(tert-butyl)-5-cyclopropylbenzyl)-2-(N-((4-(trifluoromethyl)pyridin-3-yl)methyl)-(2,3,4,5,6-pentafluoro-phenyl)sulfonamido)acetamido)-3,5-dimethylbenzoic acid] | 316 to 1000 nM |
| Cc1cc(C(=O)O)cc(C)c1N(Cc1cc(C2CC2)cc(C(C)(C)C)c1)C(=O)CN(Cc1ccc(F)cc1Cl)S(=O)(=O)c1c(F)c(F)c(F)c(F)c1F [Compound 1187, 4-(N-(3-(tert-butyl)-5-cyclopropylbenzyl)-2-(N-(2-chloro-4-fluorobenzyl)-(2,3,4,5,6-pentafluorophenyl)sulfon-amido)acetamido)-3,5-dimethylbenzoic acid] | 316 to 1000 nM |
| Cc1cc(C(=O)O)cc(C)c1N(Cc1cc(C2CC2)cc(C2CC2)c1)C(=O)CN(Cc1cnccc1C(F)(F)F)S(=O)(=O)c1c(F)c(F)c(F)c(F)c1F [Compound 1202, 4-(N-(3,5-dicyclopropylbenzyl)-2-(N-((4-(trifluoromethyl)pyridin-3-yl)methyl)-(2,3,4,5,6-pentafluoro-phenyl)sulfonamido)acetamido)-3,5-dimethylbenzoic acid] | 316 to 1000 nM |
| Cc1cc(C(=O)O)cc(C)c1N(Cc1cc(C2CC2)cc(N2CCCC2)c1)C(=O)CN(Cc1c(F)cc(F)cc1F)S(=O)(=O)c1c(F)c(F)c(F)c(F)c1F [Compound 1205, 4-(N-(3-cyclopropyl-5-(pyrrolidin-1-yl)benzyl)-2-(N-(2,4,6-trifluorobenzyl)-(2,3,4,5,6-pentafluoro-phenyl)sulfonamido)acetamido)-3,5-dimethylbenzoic acid] | 316 to 1000 nM |
| Cc1cc(C(=O)O)cc(C)c1N(Cc1cc(C2CC2)cc(N2CCCC2)c1)C(=O)CN(Cc1ccc(F)cc1Cl)S(=O)(=O)c1c(F)c(F)c(F)c(F)c1F [Compound 1206, 4-(2-(N-(2-chloro-4-fluorobenzyl)-(2,3,4,5,6-pentafluorophenyl)sulfon-amido)-N-(3-cyclopropyl-5-(pyrrolidin-1-yl)benzyl)acetamido)-3,5-dimethylbenzoic acid] | 316 to 1000 nM |
| CC(C)(C)c1cc(CN(C(=O)CN(Cc2ccc(F)cc2Cl)S(=O)(=O)c2c(F)c(F)c(F)c(F)c2F)c2ccc(C(=O)O)c(C(F)(F)F)c2)cc(C2CC2)c1 [Compound 1229, 4-(N-(3-(tert-butyl)-5-cyclopropylbenzyl)-2-(N-(2-chloro-4-fluorobenzyl)-(2,3,4,5,6-pentafluorophenyl)sulfon-amido)acetamido)-2-(trifluoromethyl) benzoic acid] | 1000 to 3160 nM |

same assay, conditions: Homo sapiens; MV4-11 cells, 72 h, CellTiter-Blue; read-out: IC50- MV-4-11

| Compound | IC50 |
| --- | --- |
| CC(C)(C)c1cc(N(C(=O)CN(Cc2ccc(Cl)cc2)S(=O)(=O)c2c(F)c(F)c(F)c(F)c2F)c2ccc(C(=O)O)cc2)cc(C(C)(C)C)c1 [Compound 2002, 4-(2-(N-(4-chlorobenzyl)-(2,3,4,5,6-pentafluorophenyl)sulfon-amido)-N-(3,5-di-tert-butylphenyl)acetamido)ben-zoic acid] | 316 to 1000 nM |
| CC(C)(C)c1cc(CN(C(=O)CN(Cc2ccccc2)S(=O)(=O)c2c(F)c(F)c(F)c(F)c2F)c2ccc(C(=O)O)c(O)c2)cc(C(C)(C)C)c1 [Compound 2003, 4-(2-(N-benzyl-(2,3,4,5,6-pentafluorophenyl)sulfon-amido)-N-(3,5-di-tert-butylbenzyl)acetamido)-2-hydroxybenzoic acid] | 1000 to 3160 nM |
| CC(C)(C)c1cc(C(=O)N(CCN(Cc2ccc(Cl)cc2)S(=O)(=O)c2c(F)c(F)c(F)c(F)c2F)c2ccc(C(=O)O)cc2)cc(C(C)(C)C)c1 [Compound 2005, 4-(3,5-di-tert-butyl-N-(2-(N-(4-chlorobenzyl)-(2,3,4,5,6-pentafluorophenyl)sulfon-amido)ethyl)benzamido)ben-zoic acid] | 316 to 1000 nM |
| O=C(O)c1ccc(N(Cc2ccc3c(c2)OCCO3)C(=O)CN(Cc2ccc(Cl)cc2)S(=O)(=O)c2c(F)c(F)c(F)c(F)c2F)cc1O [Compound 2006, 4-(2-(N-(4-chlorobenzyl)-(2,3,4,5,6-pentafluorophenyl)sulfon-amido)-N-((2,3-dihydrobenzo[b][1,4]dioxin-6-yl)methyl)acetamido)-2-hydroxybenzoic acid] | 3160 to 100000 nM |
| CC(C)COc1cc(CN(C(=O)CN(Cc2ccc(Cl)cc2)S(=O)(=O)c2c(F)c(F)c(F)c(F)c2F)c2ccc(C(=O)O)c(O)c2)cc(OCC(C)C)c1 [Compound 2007, 4-(2-(N-(4-chlorobenzyl)-(2,3,4,5,6-pentafluorophenyl)sulfon-amido)-N-(3,5-diisobutoxybenzyl)acetami-do)-2-hydroxybenzoic acid] | 3160 to 100000 nM |
| CC(C)(C)c1cc(CN(C(=O)CN(C23CC(C2)C3)S(=O)(=O)c2c(F)c(F)c(F)c(F)c2F)c2ccc(C(=O)O)c(O)c2)cc(C2CC2)c1 [Compound 2008, 4-(2-(N-(bicyclo[1.1.1]pentan-1-yl)-(2,3,4,5,6-pentafluorophenyl)sulfon-amido)-N-(3-(tert-butyl)-5-cyclopropylbenzyl)acetami-do)-2-hydroxybenzoic acid] | 3160 to 100000 nM |

same assay, conditions: MV-4-11 cells

| Compound | IC50 |
| --- | --- |
| COc1cc(C(=O)O)ccc1N(Cc1cc(C2CC2)cc(C2CC2)c1)C(=O)CN(Cc1ncc(F)cc1Cl)S(=O)(=O)c1c(F)c(F)c(F)c(F)c1F [Compound 1176, 4-(2-(N-((3-chloro-5-fluoropyridin-2-yl)methyl)-(2,3,4,5,6-pentafluorophenyl)sulfon-amido)-N-(3,5-dicyclopropylbenzyl)acetamido)-3-methoxybenzoic acid] | 0.01 to 316 nM |
